Data published in article PMC7765098, “Non-Steroidal Anti-Inflammatory Drugs Increase Cisplatin, Paclitaxel, and Doxorubicin Efficacy against Human Cervix Cancer Cells” (Pharmaceuticals, 2020).
Like-named read-outs stand apart in the source and are kept apart here.

Columns and labels:
[1] = test system: HeLa cells; assay: Bidimensional HeLa cell proliferation (MTT assay), drugs alone or combined; assay type: cell-based, human; details: for IC50: read-out: IC50, bidimensional HeLa cell growth; for decrement of the IC50 value: bidimensional HeLa, presence of either NSAID (celecoxib or DMC) vs monotherapy
Procedure: (§1) For cellular proliferation with and without drugs, the cell lines (20 × 10^3 cells/well) were grown as bidimensional in 96-well plates containing Dulbecco’s Modified Eagle’s Medium (DMEM) (Sigma-Aldrich) for 24 h.
(§2) The combination effect of NSAIDs and chemotherapy drugs on proliferation was also analyzed by determining the resistance index ratio (RI) and the combination index (CI) value.

[2] = test system: 3T3 fibroblasts; assay: Bidimensional 3T3 fibroblast proliferation (MTT assay); assay type: cell-based, mouse; details: read-out: IC50, bidimensional 3T3 cell growth
Procedure: as §1, §2

[3] = test system: MCF-10A mammary gland cells; assay: Bidimensional MCF-10A cell proliferation (MTT assay); assay type: cell-based, human; details: read-out: IC50, bidimensional MCF-10A cell growth
Procedure: as §1

[4] = test system: HeLa MCTS; assay: HeLa multi-cellular tumor spheroid (MCTS) growth, preventive and curative protocols; assay type: cell-based, human
Procedure: HeLa, SiHa, and U373 (1 × 10^5 cells/mL) were seeded onto 2% (w/v) agarose-coated culture dishes in 5 mL DMEM. […] The growth of each MCTS was analyzed by fitting data to a logistic function for exponential growth using the Origin 8 software (Northampton MA, USA).
as §2

[5] = test system: HFF1 fibroblasts; assay: Bidimensional HFF1 fibroblast proliferation (MTT assay); assay type: cell-based; details: read-out: IC50, bidimensional HFF1 cell growth
Procedure: as §1

[6] = test system: OxPhos flux in HeLa cells; assay: OxPhos flux (oligomycin-sensitive oxygen consumption) in HeLa cells; assay type: cell-based, human; details: for OxPhos flux decrease: 5 µM celecoxib, 2 µM cisplatin, 15 µM paclitaxel, 24 h exposure; for OxPhos (mitochondrial flux) decrease, summary in Discussion: celecoxib or DMC alone, or combined with chemotherapy drugs
Procedure: For total oxygen consumption and OxPhos fluxes, HeLa, SiHa, or U373 cells or 3T3 fibroblasts (1 mg protein/mL), cultured for 24 h with the indicated drugs, were harvested and further incubated at 37 °C in air-saturated KR buffer and under constant agitation.

[7] = test system: glycolysis flux in HeLa cells; assay: Glycolytic flux (lactate production) in HeLa cells; assay type: cell-based, human; details: 5 µM celecoxib, 2 µM cisplatin, 15 µM paclitaxel, alone; 24 h exposure
Procedure: Glycolysis was started by adding 5 mM glucose (Sigma-Aldrich). Cellular samples were collected after 0 and 10 min of incubation, swiftly mixed with 30% (w/v) of cold perchloric acid, and centrifuged at 3500 rpm for 5 min. Supernatants were neutralized with 1N KOH/100 mM Tris. Cells were also incubated with 2-deoxyglucose (2-DG, 20 mM) (Sigma-Aldrich) to prevent lactate production by glycogen degradation. Lactate production was determined by the lactate dehydrogenase (Roche, Mannheim, Germany) coupled assay registering the NADH formation at 340 nm.

[8] = test system: HeLa cells; assay: Cell invasiveness assay (Boyden chamber), HeLa; assay type: cell-based, human; details: celecoxib (5 µM), paclitaxel (15 µM), cisplatin (2 µM), alone or combined, 24 h
Procedure: The lower compartment was filled with serum-free DMEM. After 24 h at 37 °C, the invasive cells found in the lower compartment were loaded with 60 nM calcein AM (acetomethylester) for 60 min.

[9] = test system: OxPhos flux in HeLa cells; details: vs. non-treated cells; cited from earlier work
[10] = test system: COX-2; details: at 100 µM; cited from earlier work
[11] = drug alone, 24 h of drug exposure
[12] = drug alone, 24 h of drug exposure, non-cancer
[13] = drug alone, added at the beginning of culture, determined at day 20 of growth, read-out: IC50, tridimensional HeLa MCTS, Preventive
[14] = drug alone, added once spheroids were formed (day 10), determined at day 20 of growth, read-out: IC50, tridimensional HeLa MCTS, Curative
[15] = Homo sapiens, HeLa, drug alone, 24 h of drug exposure
[16] = Homo sapiens, HeLa, 480 h, drug alone, added at the beginning of culture, determined at day 20 of growth, read-out: IC50, tridimensional HeLa MCTS, Preventive
[17] = Homo sapiens, HeLa, drug alone, added once spheroids were formed (day 10), determined at day 20 of growth, read-out: IC50, tridimensional HeLa MCTS, Curative
[18] = Mus musculus, NIH3T3, drug alone, 24 h of drug exposure, non-cancer
[19] = Homo sapiens, MCF-10A, drug alone, 24 h of drug exposure, non-cancer
[20] = Homo sapiens, HFF-1, drug alone, 24 h of drug exposure, non-cancer
[21] = Homo sapiens, HeLa, 480 h, read-out: IC50, tridimensional HeLa MCTS, Preventive
[22] = Homo sapiens, HeLa, read-out: IC50, tridimensional HeLa MCTS, Curative

**Q.** Which results are given for `N.N.O=C([O-])C1(C(=O)[O-])CCC1.[Pt+2]` [Carboplatin, carboplatin]?
**A.** IC50, bidimensional HeLa cell growth [1, 11]: in the mM range; IC50 [1, 11]: 1000 ± 400 µM; IC50 [2, 12]: > 5000 µM; IC50 [3, 12]: > 1000 µM; IC50 [4, 13]: 0.165 ± 0.028 µM; IC50 [4, 14]: 287 ± 43 µM

**Q.** Which results are given for `Cc1c(C)c2c(c(C)c1OC(=O)CCC(=O)O)CC[C@@](C)(CCC[C@H](C)CCC[C@H](C)CCCC(C)C)O2` [α-TOS, α-tocopheryl succinate]?
**A.** IC50 [1, 11]: 1.2 ± 0.46 µM; IC50 [4, 13]: 0.01 ± 0.004 µM; IC50 [4, 14]: 50 ± 11 µM

**Q.** Which IC50 [1, 11] does the source give for “methoxy-tocopheryl oxyacetic acid [M-TEA]” here?
**A.** 1.2 ± 0.48 µM

**Q.** Which results are given for `Cc1c(C)c2c(c(C)c1OCC(=O)O)CC[C@@](C)(CCC[C@H](C)CCC[C@H](C)CCCC(C)C)O2` [α-TEA, α-tocopherol ether linked acetic acid analog]?
**A.** IC50 [1, 15]: 4.7 ± 0.7 µM; IC50 [4, 16]: 0.025 ± 0.006 µM; IC50 [4, 17]: 30 ± 2 µM

**Q.** With `Nc1ccn([C@@H]2O[C@H](CO)[C@@H](O)C2(F)F)c(=O)n1` [Gemcitabine, gemcitabine] as the compound, how does the IC50 [1, 15] read?
**A.** 30 ± 5 µM

**Q.** What about the IC50 [2, 18] of the same compound?
**A.** > 2000 µM

**Q.** And the IC50 [3, 19]?
**A.** > 1000 µM

**Q.** And the IC50 [4, 16]?
**A.** 0.065 ± 0.017 µM

**Q.** What about the IC50 [4, 17] of the same compound?
**A.** 128 ± 20 µM

**Q.** Which IC50 [1, 15] does the source give for `CC(=O)O[C@H]1C(=O)[C@@]2(C)[C@H]([C@H](OC(=O)c3ccccc3)[C@]3(O)C[C@H](OC(=O)[C@H](O)[C@@H](NC(=O)c4ccccc4)c4ccccc4)C(C)=C1C3(C)C)[C@]1(OC(C)=O)CO[C@@H]1C[C@@H]2O` [Paclitaxel] here?
**A.** 21 ± 4 µM

**Q.** And the IC50 [2, 18]?
**A.** 80 ± 12 µM

**Q.** What about the IC50 [3, 19] of the same compound?
**A.** 100 ± 18 µM

**Q.** And the IC50 [5, 20]?
**A.** 68 ± 30 µM

**Q.** What about the IC50 [4, 16] of the same compound?
**A.** 0.016 ± 0.005 µM

**Q.** What about the IC50 [4, 17] of the same compound?
**A.** 26.5 ± 0.1 µM

**Q.** What about the OxPhos flux decrease ([6]; alone or in combination) of the same compound?
**A.** did not significantly affect

**Q.** And the glycolysis decrease [7]?
**A.** 40–60%

**Q.** What about the “decrease of invasiveness potential” value [8] of the same compound?
**A.** did not alter

**Q.** Which IC50 [1, 15] does the source give for `Cc1ccc(-c2cc(C(F)(F)F)nn2-c2ccc(S(N)(=O)=O)cc2)cc1` [Celecoxib, celecoxib] here?
**A.** 55 ± 9 µM

**Q.** And the IC50 ([2]; Mus musculus, NIH3T3, 24 h)?
**A.** 119 ± 7 µM

**Q.** And the IC50 [3, 19]?
**A.** > 100 µM

**Q.** What about the IC50 ([5]; Homo sapiens, HFF-1, 24 h) of the same compound?
**A.** 96 ± 13 µM

**Q.** What about the “decrease of chemotherapy drug IC50 values” ([4]; HeLa MCTS, both preventive and curative protocols) of the same compound?
**A.** > 70%

**Q.** What about the IC50 [4, 21] of the same compound?
**A.** 0.001 ± 0.0003 µM

**Q.** What about the IC50 [4, 22] of the same compound?
**A.** 7.5 ± 2 µM

**Q.** What about the OxPhos flux decrease ([6]; alone or in combination) of the same compound?
**A.** 36–50%

**Q.** And the “OxPhos (mitochondrial flux) decrease, summary in Discussion” value [6]?
**A.** 50–60%

**Q.** And the glycolysis decrease [7]?
**A.** 36–50%

**Q.** And the “decrease of invasiveness potential” value [8]?
**A.** did not alter

**Q.** And the “OxPhos and mitochondrial membrane potential affected” value [9]?
**A.** 50–80%

**Q.** For `O=P1(N(CCCl)CCCl)NCCCO1` (stereo not shown) [Cyclophosphamide, cyclophosphamide], which IC50 ([1]; Homo sapiens, HeLa, 24 h) is on record?
**A.** 16 ± 3 µM

**Q.** What about the IC50 ([2]; Mus musculus, NIH3T3, 24 h) of the same compound?
**A.** > 1000 µM

**Q.** And the IC50 ([3]; Homo sapiens, MCF-10A, 24 h)?
**A.** 102 ± 35 µM

**Q.** What about the IC50 [4, 21] of the same compound?
**A.** 0.136 ± 0.087 µM

**Q.** And the IC50 [4, 22]?
**A.** 315 ± 30 µM

**Q.** Which results are given for `Cc1ccc(C)c(-c2cc(C(F)(F)F)nn2-c2ccc(S(N)(=O)=O)cc2)c1` [DMC, 2,5-dimethylcelecoxib]?
**A.** IC50 [1, 15]: 48 ± 2 µM; IC50 [2, 18]: 69 ± 8.5 µM; IC50 [3, 19]: > 100 µM; IC50 [5, 20]: 44 ± 11 µM; lowering of cisplatin and paclitaxel IC50 values ([4]; HeLa MCTS curative protocol): 45–73%; lowering of cisplatin and paclitaxel IC50 values ([4]; HeLa MCTS preventive protocol): 52–55%; IC50 [4, 16]: 0.01 ± 0.002 µM; IC50 [4, 17]: 32 ± 10 µM; inhibition at 15 µM ([6]; Homo sapiens, HeLa, DMC (15 µM), paclitaxel (20 µM), cisplatin (5 µM), alone or in combination, 24 h, n=1 (Figure S3)): 60%; OxPhos (mitochondrial flux) decrease, summary in Discussion [6]: 50–60%; COX-2 activity blocked [10]: 15%

**Q.** What does the source list for Casiopeina II-gly [CasII-gly]?
**A.** decrease of IC50 values of cisplatin, paclitaxel, and doxorubicin ([1]; bidimensional HeLa cultures, co-added drug vs monotherapy): 19–54%; IC50 [1, 11]: 1.5 ± 0.9 µM; IC50 [2, 12]: 9 ± 2 µM; IC50 [3, 12]: 17 ± 3 µM; increase of cisplatin toxicity (decrease of cisplatin IC50) ([4]; HeLa MCTS): 84–96%; IC50 [4, 13]: 0.03 ± 0.0075 µM; IC50 [4, 14]: 106 ± 2 µM; decrease of IC50 values of cisplatin, paclitaxel, and doxorubicin ([4]; tridimensional HeLa cultures): 62–96%

**Q.** With `COc1cccc2c1C(=O)c1c(O)c3c(c(O)c1C2=O)C[C@@](O)(C(=O)CO)C[C@@H]3O[C@H]1C[C@H](N)[C@H](O)[C@H](C)O1` [Doxorubicin, doxorubicin] as the compound, how does the IC50 [1, 15] read?
**A.** 26 ± 6 µM

**Q.** And the “decrement of the IC50 value” [1]?
**A.** 38–66%

**Q.** What about the IC50 [2, 18] of the same compound?
**A.** 51 ± 18 µM

**Q.** What about the IC50 [3, 19] of the same compound?
**A.** 82 ± 25 µM

**Q.** What about the IC50 [5, 20] of the same compound?
**A.** 65 ± 19 µM

**Q.** And the IC50 [4, 16]?
**A.** 0.048 ± 0.007 µM

**Q.** What about the IC50 [4, 17] of the same compound?
**A.** 86 ± 5 µM

**Q.** What does the source list for `N.N.[Cl][Pt][Cl]` [Cisplatin, cisplatin]?
**A.** decrement of the IC50 value [1]: 38–66%; IC50 [1, 11]: 15 ± 3 µM; IC50 [3, 12]: 82 ± 4 µM; IC50 [5, 12]: 59 ± 26 µM; IC50 [4, 13]: 0.05 ± 0.017 µM; IC50 [4, 14]: 270 ± 20 µM; OxPhos flux decrease ([6]; alone or in combination): did not significantly affect; glycolysis decrease [7]: 40–60%; decrease of invasiveness potential [8]: did not alter
